Where “and” joins values, the source holds several entries; their conditions need not be identical. Identical values can stand only once. Like-named read-outs stand apart in the source and are kept apart here.
Experiments:
[1] = test system: Heliobacterium modesticaldum Ice1; experiment: microbe, parasite or virus in culture
Method: The following strains were used in these studies: Heliobacterium modesticaldum Ice1, Clostridium acetobutylicum ATCC 824, Geobacter sulfurreducens PCA and Escherichia coli K-12. For phototrophic growth of H. modesticaldum, cells were supplied with constant illumination at 80 μmolphoton·m^−2·s^−1 at 50° C. whereas chemotrophic cells were grown at the same temperature in the dark in line with previous work.^32 C. acetobutylicum and E. coli were grown at 37° C. whereas G. sulfurreducens was grown at 28° C., all chemotrophically in the dark.
[…] Hg growth assays were carried out under the same phototrophic and chemotrophic conditions mentioned above.
Stock solutions used in cell cultures were all prepared following anaerobic techniques. […] For DMSO controls, the DMSO solution was bubbled with N2 prior to being added to the bioreactor; final concentration of DMSO in the reactor was 2.8 mM. Sodium nitrite stocks were prepared to a final concentration of 10 mM in ultra pure miliQ, filter-sterilized, sparged with N2 and stored at 4° C. in the dark; final concentration of NO2^− in the reactor was 10 μM. For experiments where HCO3^− was supplied, a stock solution of 1 M was prepared by dissolving NaHCO3 in ultra pure MiliQ and autoclaving for 30 minutes at 121° C. under 80% N2/20% CO2 atmosphere prior to use. Fumarate stock solutions were prepared at a final concentration of 40 mM in ultra pure miliQ, filter sterilized (0.2 μm pore size), bubbled with N2, sealed and crimped shut in sterile serum bottles prior to use. All equipment used in the anaerobic glove box was conditioned for at least 48 hours prior to use.
For Heliobacterium modesticaldum Ice1, new cultures were started from a cryostock for every bioreactor experiment. Cells were revived in DSMZ medium 655 (herein referred to as PYE) previously used to isolate H. modesticaldum (Kimble, L. K.; Mandelco, L.; Woese, C. R.; Madigan, M. T., Heliobacterium modesticaldum, sp. nov., a thermophilic heliobacterium of hot springs and volcanic soils. Archives of Microbiology 1995, 163, (4), 259-267). Cultures started from cryostock were grown phototrophically in PYE with an incandescent light source and constant illumination of 80 μmol photon m^−2s^−1 at 50° C. in line with previous work (Kimble, above) until reaching early stationary phase. Afterwards, a 10% inoculum was used to re-inoculate 10 mL of fresh PYE and cells were grown phototrophically (with the same light intensity) or chemotrophically (in the dark) at 50° C. These cultures were used to establish finely resolved growth curves and Hg growth assays (see FIGS. 1 and 2).
For experiments testing the effect of carbon source on Hg^0 production some modifications to the initial PYE medium growth protocol were made. Phototrophic H. modesticaldum cells were grown with pyruvate, acetate, acetate+HCO3^− and/or yeast extract alone as a carbon source. Cells were grown until late exponential phase before being subsampled to supply a 10% inoculum for cultures with a final volume 75 mL destined for the bioreactor and grown under the same conditions (see Table 1). […] Upon reaching late exponential phase, cells were inoculated into the bioreactor as a 10% inoculum in a final volume of 560 mL of media with the desired carbon source treatment.
Please refer to the methods section of Gregoire and Poulain (2016)^21 (which is herein incorporated by reference in its entirety) for a schematic of the bioreactor setup employed and the Hg^0 sampling methodology. Note that phototrophic bioreactor experiments were carried out using a 200 W incandescent clear light bulb at a constant illumination at 20 μmolphoton·m^−2·s^−1.

[2] = test system: Clostridium acetobutylicum ATCC 824; experiment: Bioreactor Hg^0 production and growth of Clostridium acetobutylicum ATCC 824 supplied with Hg^II; format: cell-based; conditions: chemotrophy
Method: For Clostridium acetobutylicum ATCC 824, new cultures were started for every bioreactor experiment. Cells were revived in DSMZ medium 104b (herein referred to as PYX). Cells were grown in the dark at 37° C. until reaching early stationary phase after which point they were rotated as a 1% inoculum in a final volume of 10 mL into fresh PYX. Cells were grown to late exponential phase, and re-inoculated as a 1% inoculum in a final volume of 75 mL of PYX in cultures destined for the bioreactor. Experiments were performed in PYE where all SO4^2− salts were substituted with chloride salts (PYEΔSO4^2−) to avoid competition between Hg^II reduction and SO4^2− reduction. Cells were also supplied with Hg^II in DSMZ medium 104b to account for the effect of suboptimal growth medium (see Table 1 and Table 3). […] The initial volume of medium in the bioreactor was corrected to ensure that identical volumes were maintained throughout all experiments.

[3] = test system: Geobacter sulfurreducens PCA; experiment: Bioreactor Hg^0 production and growth of Geobacter sulfurreducens PCA supplied with Hg^II; format: cell-based; conditions: for Cumulative Hg(0) production / Final O.D. 600 nm: live cells, 28 C, Hg 250 pM
Source text: Geobacter sulfurreducens PCA cells were revived from cryostock and grown in defined medium (herein referred to as GSMM) according to previous work (Schaefer, J. K.; Morel, F. M. M., High methylation rates of mercury bound to cysteine by Geobacter sulfurreducens. Nature Geoscience 2009, 2, (2), 123-126) with the following modification: resazurin, the color indicator used to monitor anoxia, was removed to avoid issues with abiotic Hg reduction given that resazurin is a reducing agent. Cells were grown chemotrophically in the dark at 28° C. Cells took between 10 to 12 days to re-initiate growth, as such, cultures were maintained by re-inoculating fresh GSMM every 4 days with a 10% inoculum in a final volume of 10 mL. Upon reaching late exponential phase, a 10% inoculum was used to start cultures in GSMM with a final volume of 75 mL destined for the bioreactor. Upon reaching late exponential phase a 10% inoculum was used to inoculate the bioreactor where cells were supplied with Hg^II in 560 mL of PYEΔSO4^2− or GSMM medium (see Table 1).

[4] = test system: Heliobacterium modesticaldum Ice1; experiment: Hg growth assays with Heliobacterium modesticaldum Ice1; format: cell-based; conditions: 500 nM HgCl2 supplied as two doses of 250 nM 24 hours apart, phototrophic and chemotrophic cells in PYE
Method: One-way ANOVAs were performed for phototrophic and chemotrophic Hg exposure assays using R statistical software (R Core Team R: A Language and Environment for Statistical Computing, R Foundation for Statistical Computing: 2014). In the event of detecting a significant difference, assumptions of constant variance and normality were verified with the Brusch-Pagan test and the Shapiro-Wilks test, respectively, with the significance thresholds set to p=0.05 for each test. Significant differences were then identified using the Tukey HSD test. The sample size employed for growth assays was n=3 per treatment. All assumptions were passed for significant differences and these values are reported in the Brief Description of the Drawings (see FIG. 4). A non-linear regression model was fit to the cumulative Hg^0 production data as a function of pyruvate concentration using Sigmaplot software. In this instance, a natural logarithmic function was fit to a data set of n=8. Given the significant fit, assumptions of constant variance and normality were verified with the Sigmaplot software with the significant threshold set to p=0.05 for each test.

[5] = live cells, 37 C, pyruvate 20 mM + YE 4 g L-1 (PYEΔSO4^2-), NTZ 10 μM + DMSO 2.8 mM, Hg 250 pM
[6] = chemotrophy, pyruvate 20 mM + YE 4 g L-1 (PYEΔSO4^2-), NTZ 10 μM + DMSO 2.8 mM
[7] = live cells, phototrophy, 50 C, acetate 30 mM + YE 4 g L-1, HCO3- 10 mM, Hg 250 pM
[8] = chemotrophy, pyruvate 20 mM + YE 4 g L-1, fumarate 40 mM

`CC(=O)Oc1ccccc1C(=O)Nc1ncc([N+](=O)[O-])s1` [NTZ, nitazoxanide] was tested, and the inhibition at 10 µM ([1]; Heliomicrobium modesticaldum, ICE1, read-out: Inhibition (decrease) of chemotrophic Hg^0 production compared to controls) was 88%, the “Final O.D. 600 nm” value ([1]; live cells, chemotrophy (dark), 50 C, pyruvate 20 mM + YE 4 g L-1, NTZ 10 μM + DMSO 2.8 mM, Hg 250 pM) was 0.065 and 0.057 and the Cell growth ([1]; phototrophic cells, NTZ 10 μM) was “did not grow”. For the same compound, the “Lag: peak of Hg^0 production occurring later than previously observed” value ([1]; phototrophic cells, NTZ 10 μM) was 11 h, the “Decrease of Hg^0 production in the presence of NTZ” value ([2]; NTZ 10 μM vs DMSO control) was 98% and the “Cumulative Hg(0) production” value [2, 5] was 1.20 pmol. For the same compound, the “Final O.D. 600 nm” value [2, 5] was 0.146, the “Decrease of Hg^0 production in the presence of NTZ” value ([3]; chemotrophy, NTZ 10 μM vs DMSO control) was 62% and the “Cumulative Hg(0) production” value [3, 6] was 3.19 pmol. The “Final O.D. 600 nm” value [3, 6] was 0.041.
With `[Cl][Hg][Cl]` [Hg^II, HgCl2] the “Cell health at increased mercury concentration” value ([1]; 2 nM Hg, phototrophically grown cells, 48 hours) was “unaffected” and the “Physiological advantage / growth (rate, yield) with sublethal Hg” value [4] was “No physiological advantage was observed except for a small increase in the yield of phototrophically grown cells”.
In the case of `O=C([O-])O.[Na+]` [HCO3—, NaHCO3], the “Cumulative Hg(0) production” value [1, 7] is reported as 43.31 pmol and 42.50 pmol and the “Final O.D. 600 nm” value [1, 7] is reported as 0.02 and 0.039.
With `O=N[O-].[Na+]` [NO2, Sodium nitrite] the “Cumulative Hg(0) production” value [1] was 53.36 ± 0.13 pmol and 53.47 pmol and 53.66 pmol, the “Final O.D. 600 nm” value [1] was 0.034 and 0.023 and the “Increase in the amount of Hg^0 produced” value [1] was 30%.
For `O=C(O)/C=C/C(=O)O` [Fumarate], the Cell growth ([3]; in the presence of fumarate) was “able to grow”, the “Cumulative Hg(0) production” value ([3]; chemotrophy, acetate 10 mM (optimal growth medium), fumarate 40 mM) was 19.81 pmol and 21.48 pmol and the “Cumulative Hg(0) production” value [3, 8] was 6.65 pmol. The “Final O.D. 600 nm” value [3, 8] was 0.185 and the “Decrease of Hg^0 production in the presence of fumarate” value ([3]; with vs without fumarate as terminal electron acceptor, pyruvate + YE) was 50%.
